Calls of active or inactive are those of the source. The rule behind the calls is not given here.
Legend:
[1] = tested on: Radical scavenging activity; test: Antioxidant activity assessed as DPPH free radical scavenging activity at 0.05 mM after 20 mins; assay type: functional
[2] = tested on: Radical scavenging activity; test: Antioxidant activity assessed as DPPH free radical scavenging activity at 0.1 mM after 20 mins; assay type: functional
[3] = tested on: Radical scavenging activity; test: Antioxidant activity assessed as DPPH free radical scavenging activity at 0.05 mM after 60 mins; assay type: functional
[4] = tested on: Radical scavenging activity; test: Antioxidant activity assessed as DPPH free radical scavenging activity at 0.1 mM after 60 mins; assay type: functional
[5] = Antioxidant activity against Fe3+/ascorbic acid system generated hydroxyl radicals assessed as inhibition of formaldehyde production at 0.1 mM; assay type: functional; design: scale not given: the % may be the effect or the level left
Glycine max = test: Inhibition of soybean lipoxygenase assessed as conversion of sodium linoleate to 13-hydroperoxylinoleic acid at 0.1 mM
[6] = Antioxidant activity assessed as superoxide radical scavenging activity at 0.1 mM after 2 mins by nitroblue tetrazolium method; assay type: functional
Rattus norvegicus [7] = test: Antiinflammatory activity in Fisher 344 rat assessed as inhibition of carrageenan-induced paw edema at 0.01 mmol/kg, ip after 3.5 hrs; assay type: functional; conditions: Fisher 344, ip
[8] = Inhibition of soybean lipoxygenase assessed as conversion of sodium linoleate to 13-hydroperoxylinoleic acid; design: species or system Glycine max
[9] = Toxicity in Fisher 344 rat assessed as mortality at 0.01 mmol/kg, ip administered daily once for 4 days measured after 24 hrs final post dose; assay type: organism-based; conditions: in vivo, read-out: Activity
Rattus norvegicus [10] = test: Toxicity in Fisher 344 rat assessed as gastrointestinal ulcer at 0.01 mmol/kg, ip administered daily once for 4 days measured after 24 hrs final post dose; assay type: organism-based; conditions: in vivo
Rattus norvegicus [11] = test: Toxicity in Fisher 344 rat assessed as body weight change per 100 g of animal at 0.01 mmol/kg, ip administered daily once for 4 days measured after 24 hrs final post dose; assay type: organism-based; conditions: in vivo
Rattus norvegicus [12] = test: Toxicity in Fisher 344 rat assessed as melena defecation at 0.01 mmol/kg, ip administered daily once for 4 days measured after 24 hrs final post dose; assay type: organism-based; conditions: in vivo

| Structure (SMILES) | Activity [1] [%] | Activity [2] | Activity [3] [%] | Activity [4] | Activity [5] | inhibition (Glycine max) [%] | Activity [6] | inhibition in vivo at 10 µmol/kg (Rattus norvegicus [7]) [%] | IC50 [8] [µM] | mortality at 24 h [9] [%] | Activity (Rattus norvegicus [10]) [%] | Activity (Rattus norvegicus [11]) [g] | Activity (Rattus norvegicus [12]) |
| --- | --- | --- | --- | --- | --- | --- | --- | --- | --- | --- | --- | --- | --- |
| COC(=O)c1cc(=O)oc2cc3c(cc12)CCCC3 | 12 | 12% | 21 | 25% | 74% | 78 | 100% | 43.4 | – | – | – | – | – |
| COC(=O)c1cc(=O)oc2c3c(ccc12)CCCC3 | 27 | inactive | 31 | inactive | inactive | – | inactive | 62 | 100 | – | – | – | – |
| O=C(O)/C=C/c1ccc(O)c(O)c1 [CAFFEIC ACID] | – | – | – | – | – | – | 46% | – | 600 | – | – | – | – |
| O=c1ccc2ccc3c(c2o1)CCCC3 | 25 | inactive | 15 | inactive | inactive | 4 | 16% | 54 | – | – | – | – | – |
| Cc1c(C)c2c(c(C)c1O)CCC(C)(C(=O)O)O2 (centres undefined) | – | – | – | – | 88% | – | – | – | – | – | – | – | – |
| COC(=O)c1cc(=O)oc2ccc3c(c12)CCCC3 | 14 | 18% | 17 | 20% | 53% | 31 | inactive | 34 | – | – | – | – | – |
| COC(=O)c1cc(=O)oc2cc3c(cc12)OCO3 | 12 | 9% | 18 | 21% | 78% | 0 | – | 45.5 | – | – | – | – | – |
| COc1ccc2c(c1)c(CC(=O)O)c(C)n2C(=O)c1ccc(Cl)cc1 [INDOMETHACIN] | – | – | – | – | – | – | – | 47 | – | 50 | 78 | -9 | Non-toxic |
| COC(=O)c1cc(=O)oc2cc3c(cc12)CCC3 | 19 | 14% | 22 | 27% | 64% | 10 | – | – | – | – | – | – | – |
| COC(=O)c1cc(=O)oc2c3c(ccc12)OC(C)(C)C3 | 11 | inactive | 12 | inactive | 72% | 4 | inactive | 65 | – | 0 | 0 | 2.5 | Toxic |
| CC(Cc1ccc(O)c(O)c1)C(C)Cc1ccc(O)c(O)c1 (centres undefined) | 63 | 65% | 81 | 83% | – | – | – | – | – | – | – | – | – |

— ChEMBL document CHEMBL1154172, “Synthesis and anti-inflammatory evaluation of novel angularly or linearly fused coumarins” (Eur J Med Chem, 2009)
